Common to all, as to format: in vitro ADME
The nature of series [1]: Stability in human plasma. As to conditions: for half-life at 2 μM: read-out: Human T1/2; for Human T1/2: 2 μM. How it is done: (§1) Similarly, selected compounds of the invention were also assessed for their stability in human and rat plasma, and the results are listed in Table 3.
Another series can be described thus: Stability in rat plasma. To be noted: read-out: Rat T1/2. How it is done: as §1
A short description of series [2]: Compound stability in human liver microsomes. As to conditions: for CLint scaled at 1 μM: pH 7.4, in vivo CLint extrapolated; for half-life at 1 μM: pH 7.4, read-out: Human T1/2. The protocol: (§2) Human or rat liver microsomes incubations were conducted in duplicate in polypropylene tubes. […] Compounds were dissolved in DMSO and diluted with PBS such that the final concentration of DMSO was 0.05%. The enzymatic reactions were commenced with the addition of protein after a 3 min preincubation and incubated in a water bath open to the air at 37° C. Reactions were terminated at various time points (0, 5, 10, 15, 30, 60 min) by adding equal volume of ice-cold acetonitrile. The samples were stored at −80° C. until LC/MS/MS assays.
(§3) The concentrations of compounds in the incubation mixtures of human (or rat) liver microsomes were determined by a LC/MS/MS method. The ranges of the linearity in the concentration range were determined for each tested compounds.
(§4) A parallel incubation was performed using denatured microsomes as the negative control, and reactions were terminated at various time points (for example, 0, 15, 60 min) after incubation at 37° C.
(§5) Dextromethorphan (70 μM) was selected as the positive control, and reactions were terminated at various time points (0, 5, 10, 15, 30, 60 min) after incubation at 37° C. Both positive and negative control samples were included in each assay to ensure the integrity of the microsomal incubation system.
(§6) Alternatively, the stability of some of the compounds disclosed herein in human (or rat) liver microsomes were also conducted in the following protocol. The incubations were conducted in duplicate in polypropylene tubes. […] Compounds were dissolved in DMSO and diluted with K-buffer such that the final concentration of DMSO was 0.2%. The enzymatic reactions were commenced with the addition of 15 μL of NADPH (final concentration: 2 mM) after 10 min preincubation and incubated in a 37° C. incubator. Reactions were terminated at various time points (0, 15, 30, 60 min) by adding 135 μL acetonitrile (contain IS). Protein is removed by centrifugation with 4,000 rpm, 10 min.
(§7) In the above protocol, ketanserin (1 μM) was selected as the positive control, and reactions were terminated at various time points (0, 15, 30, 60 min) after incubation at 37° C. The positive control sample was included in each assay to ensure the integrity of the microsomal incubation system.
(§8) The concentrations of compounds in liver microsome incubations were plotted as a percentage of the relevant zero time point control for each reaction. The in vivo CLint were extrapolated (ref: Naritomi et al., Prediction of human hepatic clearance from in vivo animal experiments and in vitro metabolic studies with liver microsomes from animals and humans, Drug Metab. Dispos., 2001, 29: 1316-1324.) […]

Series [3] can be described thus: Compound stability in rat liver microsomes. As to conditions: for CLint scaled at 1 μM: pH 7.4, in vivo CLint extrapolated; for half-life at 1 μM: pH 7.4, read-out: Rat T1/2. How it is done:
as §2, §3, §4, §5, §6, §7, §8

`CCCS(=O)(=O)Nc1ccc(F)c(C(=O)c2cn(C(C)OC(=O)CC)c3ncc(-c4ccc(Cl)cc4)cc23)c1F` (stereo not drawn) [Ex. 10, 1-(5-(4-chlorophenyl)-3-(2,6-difluoro-3-(propylsulfonamido)benzoyl)-1H-pyrrolo[2,3-b]pyridin-1-yl)ethyl propionate]: the half-life at 2 μM in series [1] came to 88.1 min; in the series “Stability in rat plasma”, 55.8 min.

On to `CCCS(=O)(=O)Nc1ccc(F)c(C(=O)c2cn(C(OC(=O)CC)C(C)C)c3ncc(-c4ccc(Cl)cc4)cc23)c1F` (stereo not drawn) [Ex. 11, 1-(5-(4-chlorophenyl)-3-(2,6-difluoro-3-(propylsulfonamido)benzoyl)-1H-pyrrolo[2,3-b]pyridin-1-yl)-2-methylpropyl propionate], for which the figures for the half-life at 2 μM (in series [1]; in “Stability in rat plasma”) were 162 min and 49.8 min, respectively.

As to `CCCS(=O)(=O)Nc1ccc(F)c(C(=O)c2cn(COC(=O)CN)c3ncc(-c4ccc(Cl)cc4)cc23)c1F.Cl` [Ex. 19, (5-(4-chlorophenyl)-3-(2,6-difluoro-3-(propylsulfonamido)benzoyl)-1H-pyrrolo[2,3-b]pyridin-1-yl)methyl 2-aminoacetate hydrochloride], the half-life at 2 μM was determined as 7.47 min in series [1] and 5.9 min in “Stability in rat plasma”.

By CLint scaled is commonly meant the capacity of the preparation to metabolise the compound, expressed as a volume cleared per time. As for `CCCS(=O)(=O)Nc1ccc(F)c(C(=O)c2cn(COC(=O)[C@@H](N)C(C)CC)c3ncc(-c4ccc(Cl)cc4)cc23)c1F.Cl` (stereo partly drawn) [Ex. 22, (2S)-(5-(4-chlorophenyl)-3-(2,6-difluoro-3-(propylsulfonamido)benzoyl)-1H-pyrrolo[2,3-b]pyridin-1-yl)methyl-2-amino-3-methylpentanoate hydrochloride], the results for the CLint scaled at 1 μM in series [2] and in series [3] were 23.9 mL/min/kg and 535 mL/min/kg, respectively. Besides, the half-life at 1 μM in series [2] was determined as 72.8 min; in series [3], 4.6 min. In addition, the half-life at 2 μM in series [1] stood at 6.81 min; in the series “Stability in rat plasma” it was 15.2 min.

Consider `CCCS(=O)(=O)Nc1ccc(F)c(C(=O)c2cn(COC(=O)C(N)C(C)C)c3ncc(-c4ccc(Cl)cc4)cc23)c1F.Cl` (stereo not drawn) [Ex. 18, (5-(4-chlorophenyl)-3-(2,6-difluoro-3-(propylsulfonamido)benzoyl)-1H-pyrrolo[2,3-b]pyridin-1-yl)methyl 2-amino-3-methylbutanoate hydrochloride], for which, in series [2], the CLint scaled at 1 μM is 5.52 mL/min/kg and the half-life at 1 μM is 78.8 min. Also, the half-life at 2 μM in series [1] turned out to be 6.08 min. Further, the half-life at 2 μM in “Stability in rat plasma” was 9.61 min.

On to `CCCS(=O)(=O)Nc1ccc(F)c(C(=O)c2cn(C(C)OC(=O)OC(C)C)c3ncc(-c4ccc(Cl)cc4)cc23)c1F` (stereo not drawn) [Ex. 30, 1-(5-(4-chlorophenyl)-3-(2,6-difluoro-3-(propylsulfonamido)benzoyl)-1H-pyrrolo[2,3-b]pyridin-1-yl)ethyl isopropyl carbonate], for which, in series [1], the “Human T1/2” value is given as “∞”. The half-life at 2 μM in the series “Stability in rat plasma” came out at 56.3 min.

Regarding `CCCS(=O)(=O)Nc1ccc(F)c(C(=O)c2cn(C(OC(=O)C(C)C)C(C)C)c3ncc(-c4ccc(Cl)cc4)cc23)c1F` (stereo not drawn) [Ex. 16, 1-(5-(4-chlorophenyl)-3-(2,6-difluoro-3-(propylsulfonamido)benzoyl)-1H-pyrrolo[2,3-b]pyridin-1-yl)-2-methylpropyl isobutyrate], the “Human T1/2” value in series [1] is reported as “∞”. For the same compound, the half-life at 2 μM in the series “Stability in rat plasma” is 157 min.

Take `CCCS(=O)(=O)Nc1ccc(F)c(C(=O)c2cn(C(C)OC(=O)OCC)c3ncc(-c4ccc(Cl)cc4)cc23)c1F` (stereo not drawn) [Ex. 28, 1-(5-(4-chlorophenyl)-3-(2,6-difluoro-3-(propylsulfonamido)benzoyl)-1H-pyrrolo[2,3-b]pyridin-1-yl)ethyl ethyl carbonate]: the half-life at 2 μM in series [1] turned out to be 57.9 min; in the series “Stability in rat plasma”, 49.5 min.

Take `CCCS(=O)(=O)Nc1ccc(F)c(C(=O)c2cn(COC(=O)C(C)(C)C)c3ncc(-c4ccc(Cl)cc4)cc23)c1F` [Ex. 7a, (5-(4-chlorophenyl)-3-(2,6-difluoro-3-(propylsulfonamido)benzoyl)-1H-pyrrolo[2,3-b]pyridin-1-yl)methyl pivalate]: in series [2] (1 μM), the “Human T1/2” value is “∞”. Also, in series [3], the CLint scaled at 1 μM is 46.8 mL/min/kg and the half-life at 1 μM worked out at 53.1 min. Besides, the “Human T1/2” value in series [1] is listed as “∞”. Besides, the half-life at 2 μM in the series “Stability in rat plasma” was 68.8 min.

Take `CCCS(=O)(=O)Nc1ccc(F)c(C(=O)c2cn(COC(=O)C(C)C)c3ncc(-c4ccc(Cl)cc4)cc23)c1F` [Ex. 9, (5-(4-chlorophenyl)-3-(2,6-difluoro-3-(propylsulfonamido)benzoyl)-1H-pyrrolo[2,3-b]pyridin-1-yl)methyl isobutyrate]: the half-life at 2 μM was determined as 113 min in series [1] and 28.6 min in “Stability in rat plasma”.

Regarding `CCCS(=O)(=O)Nc1ccc(F)c(C(=O)c2cn(COC(=O)OC(C)C)c3ncc(-c4ccc(Cl)cc4)cc23)c1F` [Ex. 27, (5-(4-chlorophenyl)-3-(2,6-difluoro-3-(propylsulfonamido)benzoyl)-1H-pyrrolo[2,3-b]pyridin-1-yl)methyl isopropyl carbonate], the half-life at 2 μM was 79.6 min in series [1] and 55.9 min in the series “Stability in rat plasma”.

With `CCCS(=O)(=O)Nc1ccc(F)c(C(=O)c2cn(COC(=O)[C@@H](N)CC(C)C)c3ncc(-c4ccc(Cl)cc4)cc23)c1F.Cl` [Ex. 23, (S)-(5-(4-chlorophenyl)-3-(2,6-difluoro-3-(propylsulfonamido)benzoyl)-1H-pyrrolo[2,3-b]pyridin-1-yl)methyl 2-amino-4-methylpentanoate hydrochloride], the CLint scaled at 1 μM is 15.4 mL/min/kg in series [2] and 429 mL/min/kg in series [3]. The half-life at 1 μM is 113 min in series [2] and 5.8 min in series [3]. The half-life at 2 μM amounted to 3.06 min in series [1] and 3.42 min in the series “Stability in rat plasma”.

With `CCCS(=O)(=O)N(C(=O)OCC)c1ccc(F)c(C(=O)c2c[nH]c3ncc(-c4ccc(Cl)cc4)cc23)c1F` [Ex. 1, ethyl 3-(5-(4-chlorophenyl)-1H-pyrrolo[2,3-b]pyridine-3-carbonyl)-2,4-difluorophenyl(propylsulfonyl)carbamate], in series [2], the CLint scaled at 1 μM was 60.2 mL/min/kg and the half-life at 1 μM turned out to be 28.9 min. Moreover, in series [3], the CLint scaled at 1 μM was 142 mL/min/kg and the half-life at 1 μM was determined as 17.5 min.

Regarding `CCCS(=O)(=O)Nc1ccc(F)c(C(=O)c2cn(C(C)OC(=O)C(C)C)c3ncc(-c4ccc(Cl)cc4)cc23)c1F` (stereo not drawn) [Ex. 14, 1-(5-(4-chlorophenyl)-3-(2,6-difluoro-3-(propylsulfonamido)benzoyl)-1H-pyrrolo[2,3-b]pyridin-1-yl)ethyl isobutyrate], in series [2], the CLint scaled at 1 μM was 51.7 mL/min/kg and the half-life at 1 μM was 33.6 min. The half-life at 2 μM in series [1] stood at 511 min.

As for `CCCS(=O)(=O)Nc1ccc(F)c(C(=O)c2cn(COC(=O)OCC)c3ncc(-c4ccc(Cl)cc4)cc23)c1F` [Ex. 26, (5-(4-chlorophenyl)-3-(2,6-difluoro-3-(propylsulfonamido)benzoyl)-1H-pyrrolo[2,3-b]pyridin-1-yl)methyl ethyl carbonate], the half-life at 2 μM in series [1] was determined as 81.6 min.

`CCCS(=O)(=O)Nc1ccc(F)c(C(=O)c2cn(COC(=O)CC)c3ncc(-c4ccc(Cl)cc4)cc23)c1F` [Ex. 15, (5-(4-chlorophenyl)-3-(2,6-difluoro-3-(propylsulfonamido)benzoyl)-1H-pyrrolo[2,3-b]pyridin-1-yl)methyl propionate]: the half-life at 2 μM in series [1] was found to be 39.6 min; in the series “Stability in rat plasma”, 18.6 min.

`CCCS(=O)(=O)N(C(=O)c1ccccc1)c1ccc(F)c(C(=O)c2c[nH]c3ncc(-c4ccc(Cl)cc4)cc23)c1F` [Ex. 2, N-(3-(5-(4-chlorophenyl)-1H-pyrrolo[2,3-b]pyridine-3-carbonyl)-2,4-difluorophenyl)-N-(propylsulfonyl)benzamide]: the CLint scaled at 1 μM in series [2] was 29.2 mL/min/kg; in series [3], 193 mL/min/kg. The half-life at 1 μM was 59.5 min in series [2] and 12.8 min in series [3].
